For orientation: IC50 means the concentration at which inhibition is half-maximal. As usually defined, the solubility is how much of the substance goes into solution per volume. By melting point is commonly meant the temperature, or range, at which the solid turns liquid.

In series [1] the test system is IL-2 release by (PMA+Ionomycin)-stimulated Jurkat cells. Description: IL-2 release assay (IL-2 ELISA). The class given is cell-based. The note with it: Homo sapiens; PMA + Ionomycine stimulated Jurkat cells. The protocol:
The Ability of the Compounds According to Formula I to Modulate the Inflammatory Response by Inhibiting the Release of IL-2 was Assessed Using the Following Protocol
JNK pathway activation triggers the production of inflammatory cytokines such as IL-2. JNK can be activated by external stimuli such as PMA and Ionomycine and IL-2 production can be measured via an IL-2 ELISA test. Comparative measurements with and without the compounds of the invention according to the following protocol measure the ability of the compounds to prevent to stress-mediated IL-2 release.
Jurkat cells, a human T cell leukemia cell line (American Type Culture Collection # TIB 152) were cultured in RPMI 1640 medium (Gibco, BRL) supplemented with 10% of […] fetal calf serum (FCS), Glutamine and Penstrep. The cell suspension in the medium is diluted to give 2.10^6 cells/mL. The cells were plated (2.10^5 cells/well) on a 96-well plate containing different concentrations of a compound according to formula I (final concentration of compounds, 10, 3, 1, 0.3, 0.1 μM). This mixture is incubated 30 minutes at 37° C. in a humidified CO2 atmosphere. Cells were then treated with 10 μl PMA (Phorbolmyristate-13 Acetate-12)+Ionomycine (0.1 μM and 1 μM final concentration) in all wells except negative control. In wells without compounds, 10 μl of RPMI 2% DMSO (=0.1% final) is added. Cells are incubated 24 hours at 37° C. and then the supernatant harvested (freeze at −20° C. if not used the same day) prior to performing IL-2 ELISA test on the supernatant.
IL-2 release into the medium by (PMA+Iononomycin)-stimulated Jurkat cells, in presence or absence of test compounds may be assayed by ELISA. Following the procedure described below.
Monoclonal anti-human IL-2 antibody (MAB602) (capture), biotinylated anti-human IL-2 antibody (BAF202) (detection) and recombinant human IL-2 (202-IL-010) (standard) from From R&D Systems are used. […]
• 1. […] Optical density is measured using a microtiter plate reader set to 450 nm with correction at 570 nm.

The test system of series [2] is gerbil bilateral carotid occlusion. In words: Global ischemia in gerbils. The format is in vivo. The settings on record: 80 mg/kg. How it is done:
The Ability of the JNK Inhibitors Described in Formula I to Protect Cell Death During a Stroke Event was Assessed Using the Following Protocol:
The gerbil bilateral carotid occlusion is a well-described animal model of acute ischemic stroke and involves relatively easy surgical techniques.
The neuronal degeneration in the hippocampus develops over several days and is often referred as “delayed neuronal death”. In addition, the neurodegeneration observed histologically is obvious and easily quantified (37). Furthermore, the histopathology seen in the gerbil is similar to that observed in the hippocampal CA1 region of the human brain following a cardiac arrest. Behavior observations, such as memory tests, could even be performed in the case of gerbils. This kind of tests for appreciation of the degree of recovery is not easily manageable in other models such as in rat whose learning abilities are much poorer (38).
• Anesthesia with isoflurane (0.5-4%). • The common carotid arteries (left and right) are freed from tissue. • Occlusion of the arteries using Bulldog microclamps during 5 min. • Removal of clamps (reperfusion) • Stabulation of the animals under heating lamp until awake. • Stabulation of the animals in the animalry in individual cages. Sacrifice of the Animals • 7 days after ischemia (Decapitation or overdose of pentobarbital). • Sampling of the brain. […]

The target in a further series is JNK1 (Homo sapiens, UniProt P45983). Description: JNK1 inhibition. The settings on record: read-out: inhibition (IC50) with regard to JNK1. The format is biochemical.
A short description of another series: Solubility in water. The format is physicochemical. The note with it: pH 7.4, aqueous buffer, pH of 7.4 at room temperature. The protocol:
The compounds have been assessed in respect of their solubility in water, at a pH of 7.4 at room temperature. In general the solubility of compounds of formula (I) is in a range of at least 50 μg/mL solvent, more preferably of at least 100 μg/mL solvent. For instance compounds (63), (163), (198) display a solubility in water of at least 200 μg/mL solvent.

A further series concerns Male C57BL/6 mice. Description: LPS induced endotoxin shock in mice. The format is in vivo. The note with it: intravenously 15 min before LPS challenge. How it is done:
Endotoxins are the lipopolysaccharides (LPS) constituents of the outer membrane of Gram negative bacteria. […] As LPS is known to stimulate the activation of various MAP kinase pathways, including JNK (35), the ability of JNK inhibitors can be tested after the JNK signaling pathway has been switched on by a LPS challenge.
LPS (S. abortus-Galanos Lab.-) is injected (200 μg/kg, i.v.) to Male C57BL/6 mice to induce endotoxin shock. Compounds according to formula I (0.1, 1, 10 mg/kg) or NaCl ([…]) are injected intravenously (10 mL/kg) 15 min before the LPS challenge. Heparinized blood was obtained from the orbital sinus at different time points after the LPS challenge, and the blood was centrifuged at 9'000 rpm for 10 min at 4° C. to collect supernatent. Measurement of cytokines production such as TNFα and IFNγ by mouse is performed with an ELISA kit such as Duoset® DY410 for TNFα and DY 485 for IFN γ. Other ELISA assays such as described in (36) can be used.

The target of a further series is GST-JNK2 (Homo sapiens, UniProt P45984). In words: JNK2 in vitro assay (33P incorporation into c-jun, SPA). The class given is biochemical. How it is done: (§1) The phosphorylation of c-jun by JNK2 or JNK3 may be followed by monitoring the incorporation of ^33P into c-jun following the protocol below. The inhibitory activity of the compounds according to formula I, in respect of c-jun phosphorylation through JNK, is determined by calculating the phosphorylation activity of a JNK in the presence or absence of the test compounds according to formula I.
(§2) JNK3 and/or -2 assays are performed in 96 well NM plates: incubation of 0.5 μg of recombinant, pre-activated GST-JNK3 or GST-JNK2 with 1 μg of recombinant, biotinylated GST-c-Jun and 2 μM ^33γ-ATP (2 nCi/μl), in the presence or absence of compounds according to formula I and in a reaction volume of 50 μl containing 50 mM Tris-HCl, pH 8.0; 10 mM MgCl2; 1 mM Dithiothreitol, and 100 μM NaVO4. The incubation is performed for 120 min. at R.T and stopped upon addition of 200 μl of a solution containing 250 μg of Streptavidine-coated SPA beads (Amersham, Inc.)*, 5 mM EDTA, 0.1% Triton X-100 and 50 μM ATP, in phosphate saline buffer. After incubation for 60 minutes at RT, beads are sedimented by centrifugation at 1500×g for 5 minutes, resuspended in 200 μl of PBS containing 5 mM EDTA, 0.1% Triton X-100 and 50 μM ATP and the radioactivity measured in a scintillation β counter, following sedimentation of the beads as described above. By replacing biotinylated GST-c Jun with biotinylated GST-1ATF2 or biotinylated myelin basic protein, this assay may also be used to measure inhibition of pre-activated p38 and ERK MAP Kinases, respectively.

Series [3] deals with Sympathetic neurons from superior cervical ganglia (SCG). In words: Sympathetic neuron culture and survival assay. The class given is cell-based, rat. The settings on record: at 3 μM; anti NGF antibody induced cell death, MTT after 24 hours. The protocol:
The Ability of the Compounds According to Formula I to Increase the Survival Rate of Neuronal Cells Having Been Induced to Cell Death was Assessed Using the Following Protocol
Cell death is induced at day 4 after plating by exposing the culture to medium containing 10 μg/mL of anti NGF anti-body (Boehringer Mannheim Corp., Indianapolis, Ind.) and no NGF or arabinosine, in the presence or absence of sulfonamide inhibitors. 24 hours after cell death induction, determination of cell viability is performed by incubation of the culture for 1 hour, at 37° C. in 0.5 mg/mL of 3-(4,5-dimethylthiazol-2-yl)-2,5 diphenyl tetrazolium bromide (MTT). After incubation in MTT cells are resuspended in DMSO, transferred to a 96 MTT plate and cell viability is evaluated by measuring optical density at 590 nm.

For the next series, the target named is GST-JNK3 (Homo sapiens, UniProt P53779). In words: JNK3 in vitro assay (33P incorporation into c-jun, SPA). The format is biochemical. The protocol:
as §1, §2

Counter-ions that a name gives are not always drawn.

JNK1, sequence (P45983 whole entry, species assumed): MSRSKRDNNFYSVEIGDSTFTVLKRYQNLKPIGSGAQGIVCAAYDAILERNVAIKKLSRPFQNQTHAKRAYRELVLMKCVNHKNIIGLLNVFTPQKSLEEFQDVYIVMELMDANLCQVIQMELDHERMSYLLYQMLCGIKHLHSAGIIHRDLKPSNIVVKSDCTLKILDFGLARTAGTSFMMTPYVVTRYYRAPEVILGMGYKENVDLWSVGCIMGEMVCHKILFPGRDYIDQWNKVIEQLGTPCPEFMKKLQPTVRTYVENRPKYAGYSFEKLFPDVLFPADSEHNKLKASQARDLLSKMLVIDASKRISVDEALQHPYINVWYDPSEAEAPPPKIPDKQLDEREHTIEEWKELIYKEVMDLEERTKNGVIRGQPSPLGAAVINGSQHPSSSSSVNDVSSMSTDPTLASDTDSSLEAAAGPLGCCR
GST-JNK2, sequence (P45984 whole entry): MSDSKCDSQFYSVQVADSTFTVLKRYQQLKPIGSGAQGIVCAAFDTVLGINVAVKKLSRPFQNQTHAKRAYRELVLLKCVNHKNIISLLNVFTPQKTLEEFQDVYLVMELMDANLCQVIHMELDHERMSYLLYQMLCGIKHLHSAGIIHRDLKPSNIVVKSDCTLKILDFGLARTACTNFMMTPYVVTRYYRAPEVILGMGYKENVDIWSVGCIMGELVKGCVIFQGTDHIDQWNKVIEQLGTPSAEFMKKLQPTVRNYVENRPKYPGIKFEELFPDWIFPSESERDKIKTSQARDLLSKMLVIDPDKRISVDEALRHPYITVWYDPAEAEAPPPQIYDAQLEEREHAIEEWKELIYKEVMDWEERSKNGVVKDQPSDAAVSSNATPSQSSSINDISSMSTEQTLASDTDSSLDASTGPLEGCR
GST-JNK3, sequence (P53779 whole entry): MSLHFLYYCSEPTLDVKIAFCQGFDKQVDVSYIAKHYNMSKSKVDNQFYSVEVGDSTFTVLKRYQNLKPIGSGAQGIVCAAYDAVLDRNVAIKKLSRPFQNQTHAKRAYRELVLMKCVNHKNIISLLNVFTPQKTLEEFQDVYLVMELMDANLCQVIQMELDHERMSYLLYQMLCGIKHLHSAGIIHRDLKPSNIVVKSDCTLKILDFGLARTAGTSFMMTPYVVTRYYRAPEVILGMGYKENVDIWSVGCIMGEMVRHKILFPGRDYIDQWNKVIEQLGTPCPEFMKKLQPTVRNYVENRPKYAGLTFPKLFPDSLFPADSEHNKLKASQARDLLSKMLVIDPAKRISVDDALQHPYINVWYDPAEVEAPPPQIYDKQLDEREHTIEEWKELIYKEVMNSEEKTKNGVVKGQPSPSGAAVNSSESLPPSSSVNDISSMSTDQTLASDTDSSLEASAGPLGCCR

`CCCCNC1CCN(S(=O)(=O)c2ccc(CNC(=O)c3ccc(Cl)cc3)s2)CC1` [Example 68, 4-chloro-N-[(5-{[4-(butylamino)piperidin-1-yl]sulfonyl}thien-2-yl)methyl]benzamide]: the IC50 in [1] is under 800 nM. Also, in series [2], the “inhibition of global ischemia (% inhibition of total lesion)” value is on record as 64%.

On to `O=C(NCc1ccc(S(=O)(=O)N2CCC(NCc3ccc(C(F)(F)F)cc3)CC2)s1)c1ccc[nH]c1=O` [Example 198, 2-Oxo-N-({5-[(4-{[4-(trifluoromethyl)benzyl]amino}-1-piperidinyl)sulfonyl]-2-thienyl}methyl)-1,2-dihydro-3-pyridinecarboxamide], for which, on JNK1, the IC50 fell in the range of 100 to 700 nM. This compound returned a solubility in “Solubility in water” of at least 200 µg/mL.

As for `CCCCCCNC1CCN(S(=O)(=O)c2ccc(CNC(=O)c3ccc(Cl)cc3)s2)CC1` [Example 63, 4-Chloro-N-[(5-{[4-(hexylamino)piperidin-1-yl]sulfonyl}thien-2-yl)methyl]benzamide], the “inhibition of IFNγ production” value with Male C57BL/6 mice (1 mg/kg) came out at 65%. The “inhibition of TNFα production” value with Male C57BL/6 mice (10 mg/kg) was 40%. The IC50 against GST-JNK2 was under 600 nM; on JNK1 it was 100 to 700 nM; against GST-JNK3 it was under 600 nM. Also, in [3], the “rescue rate of SCG cells” value is given as 35%. Also, in “Solubility in water”, the solubility is at least 200 µg/mL.

Turning to `O=C(NCc1ccc(S(=O)(=O)N2CCC(NCc3ccc(C(F)(F)F)cc3)CC2)s1)c1ccc[nH]c1=O` (as salt: HCl) [Example 198, 2-Oxo-N-({5-[(4-{[4-(trifluoromethyl)benzyl]amino}-1-piperidinyl)sulfonyl]-2-thienyl}methyl)-1,2-dihydro-3-pyridinecarboxamide], the melting point is 288 to 289 °C.

The values are drawn from patent US7544700B2, “Pharmaceutically active sulfonamide derivatives bearing both lipophilic and ionisable moieties as inhibitors of protein JunKinases” (Laboratoires Serono SA, priority 2000, dated 2009).
